Drawing on PubChem BioAssay (NCI), this text covers GI50 and TGI for eight molecules.

Common to all, as to test: NCI-60 cell line screen, 48 h
The subject of assay [1] is A549 NSCLC.
Assay [2] relates to HCT-116 colon.
In assay [3] the test system is MDA-MB-231 breast.
Assay [4] deals with MDA-MB-435.
In assay [5] the test system is MOLT-4 leukemia.
For assay [6], the system named is PC-3 prostate.
Assay [7] relates to RPMI-8226 leukemia.
Assay [8] deals with SK-MEL-28 melanoma.
Assay [9] relates to UACC-62 melanoma.
In assay [10] the test system is UO-31 renal.

Each structure is given as a SMILES string.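 In this assay, cells in 96-well plates receive the compound at five concentrations for 48 hours. Endpoints are linearly interpolated between the surrounding concentrations. GI50 marks 50% less growth. TGI denotes the concentration required for complete inhibition of growth.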

With `COc1cc(C)ccc1C(=O)c1ccc(C)cc1OC`, the GI50 in assay [1] was 3.35 µM; in [2] it was 3.25 µM; in assay [3], 7.58 µM; in assay [4] it was 0.295 µM; in assay [5] it was 7.66 µM; in [6], 4.08 µM. For the same molecule, the GI50 in assay [7] is 3.7 µM; in assay [8], 6.96 µM; in [9], 4.45 µM; in assay [10], 5.74 µM. The TGI in assay [1] was greater than 100 µM; in assay [2] it was greater than 100 µM; in [3] it was greater than 100 µM; in assay [4], 1.08 µM; in assay [5], greater than 100 µM; in assay [6], greater than 100 µM. The TGI in assay [7] is 27.7 µM; in [8], greater than 100 µM; in assay [9] it was greater than 100 µM; in assay [10] it was greater than 100 µM.

For `C/C(=N/O)c1cccc(Nc2cc(-n3nnc4ccccc43)nc3ccccc23)c1`, the GI50 in assay [1] is 13.3 µM; in assay [2], 10.3 µM; in assay [3] it was 7.2 µM; in [4], 13.7 µM; in [5], 4.05 µM; in assay [6], 8.87 µM. Also, the GI50 in [7] is 3.07 µM; in assay [8], 21.1 µM; in assay [9], 12.7 µM; in assay [10], 25 µM. Moreover, the TGI in assay [1] is greater than 72.9 µM; in [2] it was 26 µM; in [3], greater than 23.4 µM; in assay [4] it was 37.1 µM; in assay [5], greater than 40 µM; in assay [6], 33.5 µM. In addition, the TGI in assay [7] was 14.4 µM; in assay [8], greater than 68 µM; in assay [9], 34 µM; in assay [10] it was greater than 100 µM.

For the molecule `Nc1ncn([C@@H]2S[C@H](CO)[C@@H](O)[C@@H]2F)c(=O)n1`, the GI50 in assay [1] is 0.512 µM; in assay [2], 0.265 µM; in assay [3], greater than 100 µM; in assay [4], 0.692 µM; in assay [5], 0.172 µM; in assay [7], 22.4 µM. In addition, the GI50 in assay [8] was greater than 100 µM; in [9] it was 5.01 µM; in [10] it was 0.372 µM. For the same molecule, the TGI in assay [1], in assay [2], in [3], in assay [4], in [5] and in [6] was greater than 100 µM each time. Further, the TGI in assay [7], in assay [8], in assay [9] and in assay [10] was greater than 100 µM throughout.

For the molecule `N#CC(C#N)=C/C=C(\Cl)c1ccc(Cl)cc1`, the GI50 was 17.4 µM in assay [1]; 1.58 µM in [2]; 2.54 µM in [3]; 2.73 µM in assay [4]; 0.696 µM in [5]; 8.62 µM in assay [6]. Besides, the GI50 was 4.12 µM in assay [7], 2.38 µM in [8], 6.13 µM in assay [9] and 14.4 µM in assay [10]. The TGI in [1] is 39.3 µM; in assay [2], 3.76 µM; in assay [3], 14 µM; in assay [4], 10 µM; in assay [5], greater than 100 µM; in assay [6] it was greater than 46.2 µM. Further, the TGI in assay [7] is greater than 100 µM; in assay [8], 45 µM; in [9] it was 22.8 µM; in [10] it was 44.9 µM.

In the case of `CN(C)c1cc2ccccc2oc1=O`, the TGI in assay [1], in assay [2], in assay [3], in assay [4], in assay [5] and in assay [6] was greater than 100 µM throughout. In addition, the TGI in [7], in assay [8], in [9] and in [10] was greater than 100 µM each time.

As to `O=C(c1ccc2ccccc2c1)c1c(C(F)(F)F)n([O-])c2ccc(C(F)(F)F)cc2[n+]1=O`, the GI50 in assay [1] is 1.68 µM; in assay [2] it was 0.498 µM; in assay [3], 1.48 µM; in assay [4], 1.75 µM; in assay [5], 0.441 µM; in assay [6], 0.407 µM. Moreover, the GI50 in assay [7] was 0.864 µM; in [8] it was 1.48 µM; in assay [9], 1.72 µM; in assay [10], 0.434 µM. Besides, the TGI in assay [1] was found to be 3.48 µM; in assay [2] it was 1.16 µM; in assay [3], 2.95 µM; in assay [4], 3.35 µM; in assay [5], 1.62 µM; in assay [6] it was 1.42 µM. Moreover, the TGI in assay [7] amounted to 2.88 µM; in assay [8], 2.86 µM; in assay [9], 3.21 µM; in assay [10] it was 0.874 µM.

Take `O=C1/C(=C/c2ccc([N+](=O)[O-])cc2)CN(C(=O)CCN2CCC(=NO)CC2)C/C1=C\c1ccc([N+](=O)[O-])cc1`: the GI50 was 2.85 µM in assay [1]; 0.552 µM in assay [2]; 0.869 µM in assay [3]; 1 µM in assay [4]; 0.409 µM in [5]; 0.583 µM in assay [6]. In addition, the GI50 was 0.368 µM in assay [7], 1.93 µM in assay [8], 0.866 µM in assay [9] and 1.14 µM in [10]. Further, the TGI in [1] was 12.4 µM; in [2], 1.53 µM; in assay [3] it was 2.92 µM; in [4], 3.45 µM; in assay [5], greater than 20 µM; in assay [6], 2.38 µM. The TGI in assay [7] is 1.6 µM; in assay [8] it was 4.72 µM; in [9], 2.49 µM; in assay [10] it was 2.55 µM.

`C/C(CC(O)(C(F)(F)F)C(F)(F)F)=N\NC(N)=O`: the TGI in assay [1], in assay [2], in [3], in assay [4], in [5] and in assay [6] was greater than 10 µM each time. The TGI in assay [7], in assay [8], in assay [9] and in [10] was greater than 10 µM each time.
